In ChEMBL document CHEMBL5576069, “Novel 4-[4-(4-methylpiperazin-1-yl)phenyl]-6-arylpyrimidine derivatives and their antitrypanosomal activities against T.brucei” (Bioorg Med Chem Lett, 2024):
The source made the active and inactive calls. The rule behind the calls is not given here.

Assays:
Leishmania donovani = experiment: Antitrypanosomal activity against Leishmania donovani amastigotes MHOM-ET-67/L8; assay type: functional, organism-based
Trypanosoma cruzi = experiment: Antitrypanosomal activity against Trypanosoma cruzi Tulahuen C4; assay type: functional, organism-based
[1] = system: Trypanosoma brucei rhodesiense; experiment: Antitrypanosomal activity against Trypanosoma brucei rhodesiense STIB900 trypomastigotes incubated for 70 hrs by resazurin dye based microplate fluorometer; assay type: functional, organism-based; conditions: STIB900, 70 h
[2] = Cytotoxicity against rat L6 cells; assay type: toxicity, cell-based
[3] = system: Trypanosoma brucei rhodesiense; experiment: Antitrypanosomal activity against Trypanosoma brucei rhodesiense; assay type: functional, organism-based

| Structure (SMILES) | Activity (Leishmania donovani) | Activity (Trypanosoma cruzi) | EC50 [1] | EC50 [2] | EC50 [3] | EC90 [3] |
| --- | --- | --- | --- | --- | --- | --- |
| CN1CCN(c2ccc(-c3cc(-c4cccc(Cl)c4Cl)ncn3)cc2)CC1 | inactive | inactive | 1.8 µM | 18.1 µM |  |  |
| CSc1ccc(OCc2ncc([N+](=O)[O-])n2C)cc1 [FEXINIDAZOLE] |  |  |  |  | 0.76 µM | 0.76 µM |
| Cc1nc(-c2ccc(Cl)cc2)cc(-c2ccc(N3CCN(C)CC3)cc2)n1 | inactive | inactive | 0.6 µM | 5.3 µM |  |  |
| CN1CCN(c2ccc(-c3cc(-c4cccc(Cl)c4)ncn3)cc2)CC1 | inactive | inactive | 1.7 µM | 36.3 µM |  |  |
| CN1CCN(c2ccc(-c3cc(-c4ccc(Br)cc4)nc(N)n3)cc2)CC1 | inactive | inactive | 1.6 µM | 5.1 µM |  |  |
| CN1CCN(c2ccc(-c3cc(-c4cccc(Br)c4)nc(N)n3)cc2)CC1 | inactive | inactive | 1.1 µM | 33.6 µM |  |  |
| CN1CCN(c2ccc(-c3cc(-c4ccc(Cl)cc4Cl)nc(N)n3)cc2)CC1 | inactive | inactive | 0.5 µM | 7.4 µM |  |  |
| CN1CCN(c2ccc(-c3cc(-c4ccccc4)nc(N)n3)cc2)CC1 | inactive | inactive | 3.6 µM | 30 µM |  |  |
| Cc1nc(-c2ccc(N3CCN(C)CC3)cc2)cc(-c2cccc(Cl)c2Cl)n1 | inactive | inactive | 3.6 µM | 37.3 µM |  |  |
| Cc1nc(-c2ccc(N3CCN(C)CC3)cc2)cc(-c2ccc(Cl)cc2Cl)n1 | inactive | inactive | 10.1 µM | > 100 µM |  |  |
| CN1CCN(c2ccc(-c3cc(-c4ccc(Cl)cc4)nc(N)n3)cc2)CC1 | inactive | inactive | 1.8 µM | 13 µM |  |  |
| CN1CCN(c2ccc(-c3cc(-c4ccccc4Cl)ncn3)cc2)CC1 | inactive | inactive | 5.8 µM | 42.6 µM |  |  |
| CN1CCN(c2ccc(-c3cc(-c4ccccc4[N+](=O)[O-])ncn3)cc2)CC1 | inactive | inactive | 15.2 µM | 46.9 µM |  |  |
| COc1cc([C@@H]2c3cc4c(cc3[C@H](O)[C@H]3COC(=O)[C@H]23)OCO4)cc(OC)c1OC [PODOFILOX] |  |  |  | 0.02 µM |  |  |
| Cc1nc(-c2ccc(N3CCN(C)CC3)cc2)cc(-c2cccc(Br)c2)n1 | inactive | inactive | 1.6 µM | 21.1 µM |  |  |
| CN1CCN(c2ccc(-c3cc(-c4ccc(Cl)cc4Cl)ncn3)cc2)CC1 | inactive | inactive | 2.4 µM | > 100 µM |  |  |
| CN1CCN(c2ccc(-c3cc(-c4cccc(Br)c4)ncn3)cc2)CC1 | inactive | inactive | 1.6 µM | 64.5 µM |  |  |
| Cc1nc(-c2ccc(N3CCN(C)CC3)cc2)cc(-c2cccc(Cl)c2)n1 | inactive | inactive | 1.7 µM | 20.8 µM |  |  |
| Cc1nc(-c2ccc(N3CCN(C)CC3)cc2)cc(-c2ccccc2[N+](=O)[O-])n1 | inactive | inactive | 13.5 µM | 40.2 µM |  |  |
| CN1CCN(c2ccc(-c3cc(-c4ccc(Cl)cc4)ncn3)cc2)CC1 | inactive | inactive | 0.5 µM | 16.4 µM |  |  |
| CN1CCN(c2ccc(-c3cc(-c4ccc(Br)cc4)ncn3)cc2)CC1 | inactive | inactive | 0.6 µM | 14.4 µM |  |  |
| Cc1nc(-c2ccccc2)cc(-c2ccc(N3CCN(C)CC3)cc2)n1 | inactive | inactive | 2.8 µM | 79.7 µM |  |  |
| CN1CCN(c2ccc(-c3cc(-c4cccc(Cl)c4)nc(N)n3)cc2)CC1 | inactive | inactive | 1.7 µM | 79.7 µM |  |  |
| Cc1nc(-c2ccc(N3CCN(C)CC3)cc2)cc(-c2ccccc2Br)n1 | inactive | inactive | 4.3 µM | 35.2 µM |  |  |
| CN1CCN(c2ccc(-c3cc(-c4ccccc4Br)ncn3)cc2)CC1 | inactive | inactive | 9.7 µM | 39.6 µM |  |  |
| Cc1nc(-c2ccc(Br)cc2)cc(-c2ccc(N3CCN(C)CC3)cc2)n1 | inactive | inactive | 0.9 µM | 11.2 µM |  |  |
| CN1CCN(c2ccc(-c3cc(-c4ccccc4Br)nc(N)n3)cc2)CC1 | inactive | inactive | 10.3 µM | 11.6 µM |  |  |
| CN1CCN(c2ccc(-c3cc(-c4ccccc4Cl)nc(N)n3)cc2)CC1 | inactive | inactive | 20.2 µM | 40 µM |  |  |
| CN1CCN(c2ccc(-c3cc(-c4ccccc4[N+](=O)[O-])nc(N)n3)cc2)CC1 | inactive | inactive | 14 µM | 7.1 µM |  |  |
| CN1CCN(c2ccc(-c3cc(-c4ccccc4)ncn3)cc2)CC1 | inactive | inactive | 3.8 µM | 42.7 µM |  |  |
